The values that follow come from patent US8796246B2, “9, 10-secopregnane derivative and pharmaceutical” (Nippon Shinyaku Co., Ltd., priority 2006, dated 2014).

A short description of series [1]: Metabolic rate in human liver microsome. Type of series: in vitro ADME. Conditions: pooled human liver microsome 1 mg/mL protein, NADPH-regenerating system, 37° C., 2-60 minutes, HPLC. How it is done:
The compounds of the invention mentioned in Examples and maxacalcitol were compared with each other with respect to the metabolic rate in human liver microsome.
As to the pooled human liver microsome (HHM-0323), those manufactured by Tissue Transformation Technologies were used. A 0.25 M potassium phosphate buffer (pH 7.4) (200 μL), 5 μL of a 250 μM solution of each compound to be tested in DMSO, 50 μL of an NADPH-regenerating system (where 20 mg of β-NADP^+, 70 mg of glucose-6-phosphate, 40 units of glucose-6-phosphate dehydrogenase and 20 mg of magnesium chloride were dissolved in 1 mL of distilled water) and 220 μL of distilled water were added to a microtube and the mixture was subjected to a preincubation for 5 minutes at 37° C. Reaction was started by an addition of 25 μL of human liver microsome (final concentration of protein: 1 mg/mL). Incubation was performed for 2, 10, 30 or 60 minutes and the reaction was stopped by an addition of 500 μL of acetonitrile. After centrifugation at 13,000 rpm for 5 minutes, each test compound in the supernatant (25 μL) was measured by HPLC under the following conditions.
Inertsil ODS-3 (4.6×150 mm; GL Science) was used as a column. With regard to the mobile phase, a solution A (acetonitrile/0.1% aqueous solution of ammonium acetate=10/90) and a solution B (acetonitrile/0.1% aqueous solution of ammonium acetate=90/10) were used under the linear gradient conditions mentioned in Tables 5 to 7. The column temperature, the flow rate and the wavelength for detection were set at 40° C., 1.0 mL/min. and UV 250 or 270 nm, respectively.
The compound mentioned in Example 38 was analyzed under the condition shown in Table 6; the compounds mentioned in Examples 55, 56, 68, 69, 72 and 73 were under the condition shown in Table 7; and the other compounds were under the condition shown in Table 5.
The compounds described in Examples 40, 43 to 48, 50, 55, 56, 58, 60, 61, 63 and 65 to 73 were analyzed under the condition of UV 250 nm; and the other compounds were under the condition of UV 270 nm.
From the HPLC test results as above, the metabolic rate of the test compound was calculated.
A general note: Liver microsomes are vesicles of endoplasmic reticulum, rich in cytochrome P450 enzymes.

Series [2] relates to human acute myelogenous leukemia cell line HL-60. The series is described as follows: Ability to induce differentiation of HL-60 cells (oxygen radical production after phorbol ester, WST-1). Type of series: cell-based. Conditions: 72 hours incubation, then WST-1 and phorbol 12,13-didecanoate for 4 hours, absorbance at 450 nm. An excerpt: It is known that the human acute myelogenous leukemia cell line HL-60is differentiated into neutrophil-like cells by active vitamin D or the like. Thus, the cells after the differentiation begin to express a surface marker such as CD11and CD32and, at the same time, they produce an oxygen radical by stimulation with a phorbol ester or the like. In this test, the above-mentioned property was utilized. As an index of the ability to induce differentiation of the HL-60cells, the amount of the oxygen radical produced by stimulation with a phorbol ester was measured, and the compounds of the invention mentioned in Examples were compared with maxacalcitol with respect to the vitamin D3activity thereof. In use of commercial reagents and kits, if any, the indications attached thereto were referred to.
HL-60cells (supplied from ATCC) were seeded on a 96-well plate at 5×10^3cells/100μL/well and a test compound in two-fold dilution series from 10^−7M was added to the second to the twelfth rows (maximum concentration: the second row). The first row was used for blank. After incubation for 72 hours under a moisturized condition in the presence of 5% CO2 at 37° C. using a CO2 incubator, 10 μL of PBS containing 50 mM WST-1 (manufactured by Takara Bio) and 10 μM phorbol 12,13-didecanoate (manufactured by SIGMA) were added to each well followed by further incubation for 4 hours. Absorbance (reference wavelength: […]) at […] of the WST-1 formazane dye generated by conversion from WST-1 by oxygen radical produced from the differentiated HL-60 cells was measured by a Benchmark microplate reader (manufactured by BioRad). An absorbance meter control software MPM3 (manufactured by BioRad) was used and, from a concentration-absorbance curve, the 50%-maximal effective concentration (hereinafter, referred to as “EC50”) of each was determined by a logistic curve regression.
(In general: Tetrazolium dyes change colour on reduction, which living cells bring about.)

As for `C=C1C(=CC=C2CCCC3(C)C2CCC3C(C)OC(=O)CCC(C)(O)C(F)(F)F)CC(O)CC1O` (single isomer, unassigned) [Compound of Example 35, (1S,3R,20S)-20-[(4R) or (4S)-5,5,5-trifluoro-4-hydroxy-4-methylpentanoyloxy]-9,10-secopregna-5Z,7E,10(19)-triene-1,3-diol], in series [1], the “Metabolic Rate” value turned out to be 43 pmol/min/mg. Further, in series [2], the EC50 is 0.82 nM.

With `C=C1C(=CC=C2CCCC3(C)C(C(C)OC(=O)CCC(C)(O)C(F)(F)F)=CCC23)CC(O)CC1O` (single isomer, unassigned) [Compound of Example 71, (1S,3R,20S)-20-[(4S) or (4R)-5,5,5-trifluoro-4-hydroxy-4-methylpentanoyloxy]-9,10-secopregna-5Z,7E,10(19),16-tetraene-1,3-diol], the “Metabolic Rate” value in series [1] was found to be 40 pmol/min/mg. In series [2], the EC50 was 1.1 nM.

For the molecule `C=C1C(=CC=C2CCCC3(C)C2CCC3C(C)OC(=O)CCCC(C)(C)O)CC(O)CC1O` [Compound of Example 3, (1S,3R,20S)-20-(5-hydroxy-5-methylhexanoyloxy)-9,10-secopregna-5Z,7E,10(19)-triene-1,3-diol], the “Metabolic Rate” value in series [1] was 22 pmol/min/mg. Besides, the EC50 in series [2] was 4.5 nM.

As for `C=C1C(=CC=C2CCCC3(C)C2CCC3C(C)OC(=O)CC(C)(O)C(F)(F)F)CC(O)CC1O` [Compound of Example 4, (1S,3R,20S)-20-(4,4,4-trifluoro-3-hydroxy-3-methylbutanoyloxy)-9,10-secopregna-5Z,7E,10(19)-triene-1,3-diol], the EC50 in series [2] turned out to be 0.31 nM.

Regarding `C=C1C(=CC=C2CCCC3(C)C2CCC3C(C)OC(=O)CC(O)C(C)C)CC(O)CC1O` [Compound of Example 5, (1S,3R,20S)-20-(3-hydroxy-4-methylpentanoyloxy)-9,10-secopregna-5Z,7E,10(19)-triene-1,3-diol], the EC50 in series [2] was found to be 0.86 nM.

`C=C1C(=CC=C2CCCC3(C)C2CCC3C(C)OC(=O)CC(O)(C(F)(F)F)C(F)(F)F)CC(O)CC1O` [Compound of Example 7, (1S,3R,20S)-20-[4,4,4-trifluoro-3-hydroxy-3-(trifluoromethyl)butanoyloxy]-9,10-secopregna-5Z,7E,10(19)-triene-1,3-diol] showed an EC50 in series [2] of 0.38 nM.

`C=C1C(=CC=C2CCCC3(C)C2CCC3C(C)OC(=O)C=CC(C)(C)O)CC(O)CC1O` [Compound of Example 8, (1S,3R,20S)-20-[(2E)-4-hydroxy-4-methylpent-2-enoyloxy]-9,10-secopregna-5Z,7E,10(19)-triene-1,3-diol]: the “Metabolic Rate” value in series [1] is recorded as 38 pmol/min/mg. In series [2], the concentration giving a half-maximal response (EC50) was 3.4 nM.

For `C=C1C(=CC=C2CCCC3(C)C2CCC3C(C)OC(=O)C=CC(O)(CC)CC)CC(O)CC1O` [Compound of Example 10, (1S,3R,20S)-20-[(2E)-4-ethyl-4-hydroxyhex-2-enoyloxy]-9,10-secopregna-5Z,7E,10(19)-triene-1,3-diol], the “Metabolic Rate” value in series [1] is given as 58 pmol/min/mg. A half-maximal effect in series [2] (EC50) was put at 0.99 nM.

With `C=C1C(=CC=C2CCCC3(C)C2CCC3C(C)OC(=O)CC(O)(CC)CC)CC(O)CC1O` [Compound of Example 12, (1S,3R,20S)-20-(3-ethyl-3-hydroxypentanoyloxy)-9,10-secopregna-5Z,7E,10(19)-triene-1,3-diol], the EC50 in series [2] was determined as 1.5 nM.

Consider `C=C1C(=CC=C2CCCC3(C)C2CCC3C(C)OC(=O)CCC(O)(CC)CC)CC(O)CC1O` [Compound of Example 13, (1S,3R,20S)-20-(4-ethyl-4-hydroxyhexanoyloxy)-9,10-secopregna-5Z,7E,10(19)-triene-1,3-diol], for which the “Metabolic Rate” value in series [1] came out at 38 pmol/min/mg. The response in series [2] was half-maximal at 0.53 nM (EC50).

In series [2], `C=C1C(=CC=C2CCCC3(C)C2CCC3C(C)OC(=O)CN(C)CC(C)(C)O)CC(O)CC1O` [Compound of Example 19, (1S,3R,20S)-20-[N-(2-hydroxy-2-methylpropyl)-N-methyl-2-aminoacetyloxy]-9,10-secopregna-5Z,7E,10(19)-triene-1,3-diol] had an EC50 of 2.4 nM.

In the case of `C=C1C(=CC=C2CCCC3(C)C2CCC3C(C)OC(=O)CCC2(O)CCCC2)CC(O)CC1O` [Compound of Example 20, (1S,3R,20S)-20-[3-(1-hydroxycyclopentyl)propanoyloxy]-9,10-secopregna-5Z,7E,10(19)-triene-1,3-diol], the “Metabolic Rate” value in series [1] is on record as 39 pmol/min/mg. This molecule also gave an EC50 in series [2] of 1.4 nM.

In the case of `C=C1C(=CC=C2CCCC3(C)C2CCC3C(C)OC(=O)CC(=O)C(C)(C)O)CC(O)CC1O` [Compound of Example 27, (1S,3R,20S)-20-(4-hydroxy-4-methyl-3-oxo-pentanoyloxy)-9,10-secopregna-5Z,7E,10(19)-triene-1,3-diol], the EC50 in series [2] amounted to 4.1 nM.

The molecule `C=C1C(=CC=C2CCCC3(C)C2CCC3C(C)OC(=O)CC(=O)C(O)(CC)CC)CC(O)CC1O` [Compound of Example 28, (1S,3R,20S)-20-(4-ethyl-4-hydroxy-3-oxo-hexanoyloxy)-9,10-secopregna-5Z,7E,10(19)-triene-1,3-diol] displayed an EC50 in series [2] of 1.7 nM.

In the case of `C=C1C(=CC=C2CCCC3(C)C2CCC3C(C)OC(=O)CCCC(O)(CC)CC)CC(O)CC1O` [Compound of Example 34, (1S,3R,20S)-20-(5-hydroxy-5-ethylheptanoyloxy)-9,10-secopregna-5Z,7E,10(19)-triene-1,3-diol], the “Metabolic Rate” value in series [1] was 36 pmol/min/mg. Moreover, in series [2], the response was half-maximal at 4.2 nM (EC50).

Turning to `C=C1C(=CC=C2CCCC3(C)C2CCC3C(C)OC(=O)CCCC(C)(O)C(F)(F)F)CC(O)CC1O` [Compound of Example 37, (1S,3R,20S)-20-(6,6,6-trifluoro-5-hydroxy-5-methylhexanoyloxy)-9,10-secopregna-5Z,7E,10(19)-triene-1,3-diol], in series [1], the “Metabolic Rate” value is recorded as 36 pmol/min/mg. The molecule further returned an EC50 in series [2] of 1.1 nM.

In the case of `C=C1C(=CC=C2CCCC3(C)C2CCC3C(C)OC(=O)CC(=O)C(C)(O)C(F)(F)F)CC(O)CC1O` [Compound of Example 38, (1S,3R,20S)-20-(5,5,5-trifluoro-4-hydroxy-4-methyl-3-oxopentanoyloxy)-9,10-secopregna-5Z,7E,10(19)-triene-1,3-diol], the “Metabolic Rate” value in series [1] is 33 pmol/min/mg. This molecule gave an EC50 in series [2] of 2.3 nM.

For `C=C1C(=CC=C2CCCC3(C)C(C(C)OC(=O)CCC(C)(C)O)=CCC23)CC(O)CC1O` [Compound of Example 39, (1S,3R,20S)-20-(4-hydroxy-4-methylpentanoyloxy)-9,10-secopregna-5Z,7E,10(19),16-tetraene-1,3-diol], the “Metabolic Rate” value in series [1] was 26 pmol/min/mg. Besides, the EC50 in series [2] is 1.4 nM.

As for `CC(OC(=O)CCC(C)(C)O)C1CCC2C(=CC=C3CC(O)CC(O)C3)CCCC21C` [Compound of Example 40, (1R,3R,20S)-19-nor-20-(4-hydroxy-4-methylpentanoyloxy)-9,10-secopregna-5Z,7E-diene-1,3-diol], the “Metabolic Rate” value in series [1] is reported as 65 pmol/min/mg. In series [2], this molecule showed an EC50 of 1.6 nM.

In series [2], `C=C1C(O)CC(=CC=C2CCCC3(C)C2CCC3C(C)OC(=O)CCCC(C)(C)O)CC1O` [Compound of Example 57, (1R,3R,20S)-2-methylene-19-nor-20-(5-hydroxy-5-methylhexanoyloxy)-9,10-secopregna-5Z,7E-diene-1,3-diol] had an EC50 of 0.53 nM.

Take “(1S,3R,20S)-20-(5-hydroxy-5-methylheptanoyloxy)-9,10-secopregna-5Z,7E,10(19)-triene-1,3-diol [Compound of Example 11]”: the EC50 in series [2] was 2.2 nM.

The EC50 is the concentration that produces a half-maximal response.
